Laboratory results published in article PMC5786306, “An AKAP-Lbc-RhoA interaction inhibitor promotes the translocation of aquaporin-2 to the plasma membrane of renal collecting duct principal cells” (PLoS ONE, 2018).

Key:
[1] = tested on: RhoA activation by other RhoGEFs (p63RhoGEF, Duet, Trio, LARG, Ost1, PDZRhoGEF and others) in HEK293 cells; assay: SRE luciferase reporter assay, other RhoGEFs expressed; type: cell-based, human; conditions: Scaff10 50 μM
Method: Luciferase reporter gene assays were performed with the Dual Luciferase Reporter Assay System (Promega) according to manufactures protocol and as previously reported. In brief, HEK293 cells were seeded and co-transfected with the indicated plasmids together with pSRE.L reporter plasmid encoding firefly luciferase (kindly provided from Dr J. Mao and Dr. D. Wu, Rochester, NY) and pRL-TK control vector (Promega, Mannheim, Germany) encoding renilla luciferase. The transfected cells were further cultured in DMEM with 0.5% FCS for 24 h, lysed with passive lysis buffer (Promega). Luciferase activities was measured an Envision Instrument (Perkin Elmer, Rodgau, Germany) in white 96-well plates. […] In Western blots, the protein was detected with primary polyclonal antibody (rabbit; Gramsch, 1:1000). […] AKAP-Lbc was detected with a specific anti-AKAP-Lbc antibody (Abcam; #ab99377; 1:1000). […]
Fig 7 Scaff10-8 inhibits the AKAP-Lbc-mediated activation of RhoA in cells. […] Statistically significant differences were determined applying one-way ANOVA with posthoc Bonferroni. […]
in luciferase activity induced by other GEFs. n=3; statistically significant differences were not found, as confirmed by statistical analysis using ANOVA. […] The fraction of active RhoA was determined using Rhotekin pulldown assays as described. […]

[2] = tested on: RhoA activity in IMCD cells; assay: Rhotekin pull down of active RhoA in IMCD cells; type: cell-based, rat; conditions: 30 μM
Method: Western blotting for the detection of RhoA and Hsp90 and a Rhotekin pull down for the detection of active, GTP-bound RhoA were adapted from a procedure previously described by us. In brief, IMCD cells were cultured as described, DBcAMP and nystatin were removed on day twelve after seeding by exchange of medium for medium without the compounds. On the following day, Scaff10-8 was added to a final concentration of 30 μM or, as a control, the solvent DMSO (0.3%) for 1 h. Then cells were treated with forskolin (30 μM) for an additional 30 min, and subsequently incubated at 4°C in ice-cold Rhotekin buffer (50 mM Tris, pH 7.2; 1% (w/v) Triton X-100; 0.5% sodium deoxycholate; 500 mM NaCl; 10 mm MgCl2; PhosSTOP EASY (PhosSTOP EASY pack, Roche Diagnostics, Mannheim, DE; #REF04906837001), Complete mini EDTA-free (Complete mini EDTA-free, Roche Diagnostics, Mannheim, DE; #REF0693159001), for 10 min and lysed. Lysates (300–400 μg protein) were incubated with 300 μl of Rhotekin beads as previously described Proteins were eluted from beads with Laemmli buffer and analyzed by Western blotting. […]
Fig 10 Scaff10-8 inhibits activation of RhoA in primary IMCD cells. […] Signals were semiquantitatively analyzed by densitometry. […] Statistically significant differences were determined using one-way ANOVA with posthoc Bonferroni. […]

Row | SMILES | luciferase activity induced by other GEFs [1] | RhoA activity ([2]; 1 h) | effect on RhoA inhibition by forskolin ([2]; 1 h plus forskolin 30 μM, 30 min)
1 | COc1ccc(-c2coc3cc4oc(=O)c(C)c(C)c4cc23)cc1 [Scaff10, 3-(4-Methoxyphenyl)-5,6-dimethyl-furo[3,2-g]chromen-7-one] | does not affect | – | –
2 | COc1ccc(-c2coc3cc4oc(=O)c(CCC(=O)O)c(C)c4cc23)cc1 [Scaff10-8, 3-[3-(4-Methoxyphenyl)-5-methyl-7-oxo-furo[3,2-g]chromen-6-yl] propanoic acid] | – | decreased RhoA activity | did not significantly enhance
